Test results taken from patent US6436310B1, “Deicing solution” (Sears Petroleum & Transport Corporation, priority 1998, dated 2002).
Read-outs that look alike come from different tables or passages of the source.

How the values were obtained:
[1] = calculated from data in SHRP H-205.2; cited from earlier work
[2] = Freezing point of simple carbohydrates with 15% magnesium chloride; assay type: physicochemical; conditions: 15% MgCl2
Method: There is available commercially a wide range of carbohydrates with varying carbohydrate compositions. An evaluation was conducted using simple sugars, disaccharides and polysaccharides in an attempt to determine the effect of molecular weight and solute concentration upon freezing point.

[3] = SHRP H-205.2 Test Method for Ice Melting of Liquid Deicing Chemicals; conditions: 25° F. (−4° C.)
Method: Fraction E was also examined for ice melting characteristics at 25° F.

[4] = test system: Rats; conditions: cited from earlier work
[5] = aqueous solution

SMILES	Lbs weight ice melted per lb weight of inorganic salt [1] [Lbs per lb]	Oral LD 50 (Rats) [4] [mg/kg]	further results
[Ca+2].[Cl-].[Cl-] [Ca Cl2, calcium chloride]	7.3		
OC[C@H]1O[C@@H](O[C@H]2[C@H](O)[C@@H](O)C(O)O[C@@H]2CO)[C@H](O)[C@@H](O)[C@H]1O (some centres unmarked) [Lactose]			comparison in reducing freezing point [2]: somewhat better than maltose
[Cl-].[Cl-].[Mg+2] [Mg Cl2, magnesium chloride]			Lbs weight ice melted per lb weight of inorganic salt [3]: 16.9 Lbs per lb
CC(=O)[O-].[K+] [Potassium acetate, potassium acetate]		3250	
[Cl-].[Na+] [Sodium Chloride, sodium chloride]	7.5	3000	
CC(=O)[O-].[Na+] [Sodium acetate, sodium acetate]		3550	solids content at the eutectic point [5]: 23%
